Measured values taken from paper PMC8032764 (Scientific Reports, 2021).
Like-named read-outs stand apart in the source and are kept apart here.

Key:
Benzodiazepine (central) = experiment: Cerep binding; settings: 10 μM; [3H]flunitrazepam; rat cerebral cortex
Dopamine D5 = test system: T1, Dopamine D5; experiment: Cerep binding; set-up: species or system human; settings: 10 μM; [3H]SCH 23390; hum. recomb. (GH4)
T1 construct: host or cells: GH4

Muscarinic M2 = test system: T2, Muscarinic M2; experiment: Cerep binding; set-up: species or system human; settings: 10 μM; [3H]AF-DX 384; hum. recomb. (CHO)
T2 construct: host or cells: CHO

Serotonin 5-HT1A = test system: T3, Serotonin 5-HT1A; experiment: Cerep binding; set-up: species or system human; settings: 10 μM; [3H]8-OH-DPAT; hum. recomb. (HEK-293)
T3 construct: purchased Eurofins Cerep

Serotonin 5-HT1B = test system: T4, Serotonin 5-HT1B; experiment: Cerep binding; settings: 10 μM; [125I]CYP; rat cerebral cortex
T4 construct: purchased Eurofins Cerep

Serotonin 5-HT6 = test system: T5, Serotonin 5-HT6; experiment: Cerep binding; set-up: species or system human; settings: 10 μM; [3H]LSD; hum. recomb. (CHO)
T5 construct: purchased Eurofins Cerep

Bradykinin B2 = test system: T6, Bradykinin B2; experiment: Cerep binding; set-up: species or system human; settings: 10 μM; [3H]bradykinin; hum. recomb. (CHO)
T6 construct: purchased Eurofins Cerep

Melanocortin MC4 = test system: T7, Melanocortin MC4; experiment: Cerep binding; set-up: species or system human; settings: 10 μM; [125I]NDP-α-MSH; hum. recomb. (CHO)
T7 construct: purchased Eurofins Cerep

Neuropeptide Y2 = test system: T8, Neuropeptide Y2; experiment: Cerep binding; set-up: species or system human; settings: 10 μM; [125I]peptide YY; hum., KAN-TS cells
T8 construct: purchased Eurofins Cerep

Nociceptin (ORL1) = test system: T9, Nociceptin (ORL1); experiment: Cerep binding; set-up: species or system human; settings: 10 μM; [3H]nociceptin; hum. recomb. (HEK-293)
T9 construct: host or cells: HEK-293

Na+ channel (site 2) = experiment: Cerep binding; settings: 10 μM; [3H]batrachotoxinin; rat cerebral cortex
male Lister Hooded rats = experiment: Diazepam-induced spatial learning impairment in the Morris water maze; format: in vivo, rat
Experimental: The current study used a modified version of the standard acquisition protocol, in which pre-trained rats had to learn to locate a new platform position during six trials on the test day, as described previously. Subjects were semi-randomly divided into treatment groups based on their performance on the last training day. A computer tracking system (HVS Image Ltd, UK) was used to analyse each rat’s swim path on-line.
Latency, pathlength and swim speed (Supplementary Fig. S2) were analysed with a one-factor ANOVA. For the probe trial, to determine whether each treatment group had learned the spatial position of the platform, within-subjects ANOVA was used to compare percent time spent in the platform quadrant with the left, right and opposite quadrants. All significant cases were followed by a post hoc Newman–Keuls test. In addition, a comparison between vehicle treated and diazepam-treated rats on the percent time spent in the platform quadrant was analysed using an unpaired t-test.

Wistar rats = experiment: Pentylenetetrazole (PTZ) test; format: in vivo, rat
Experimental: PTZ was prepared in 0.9% saline and was administered s.c. in a volume of 1 mL/kg. The positive control FG7142, a non-selective GABAA receptor NAM, was prepared in 0.3% Tween 80 v/v saline and was administered i.p. in a volume of 1 mL/kg. […] During this period the number of rats showing tonic convulsions was noted.
FG7142 was administered at 10 mg/kg 30 min prior to PTZ. The percent of rats in each dose group showing tonic convulsions was compared to the control group by the Pearson Chi-Square test.

male Sprague-Dawley rats = experiment: Prepulse inhibition; format: in vivo, rat; settings: 1, 3 and 10 mg/kg p.o., 30 min prior to testing
Experimental: intensities (72, 76, 80, 84 dB) at total plasma concentrations of 56 ± 20, 169 ± 20, and […]
Compound administered at 1, 3 and 10 mg/kg p.o. to male Sprague-Dawley rats 30 min prior to testing. Bars indicate mean percent prepulse inhibition (% PPI) ± SEM; 10 animals per dose group. Background noise: 68 dB. Startle pulse: 12 0 dB. For full methods refer to:
Nordquist et al. (2008). Effects of aripiprazole/OPC-14597 on motor activity, pharmacological models of psychosis, and brain activity in rats. Neuropharmacology , 54,405-416.
Animals were euthanized at the end of testing and plasma samples were collected approximately 60 min post administration; n = 4 rats per group.
(1 picture or pasted object on this page, not shown here)

healthy subjects = experiment: Safety in healthy volunteers in the PET and EEG studies; format: in vivo, human
[1] = Pharmacokinetics, single oral dosing, SAD study BP25129; format: in vivo, Human; settings: for bioavailability / Tmax / AUC(0-t) / Cmax: human, plasma, tablet, n = 6 male; for Tmax: median, read-out: Tmax (range); for AUC(0-t) / Cmax: ± percent coefficient of variation
[2] = Pharmacokinetics, single intravenous dosing; format: in vivo; settings: C57/Bl6, mouse, plasma, 2.0 mg/kg i.v., 2 male
[3] = test system: healthy male and female volunteers; experiment: Study WP29402 drug-drug interaction with itraconazole; format: in vivo, human
From the text: 3) Study WP29402 Drug-Drug Interaction (DDI) Itraconazole in Healthy Volunteers This was an open-label, three treatment, fixed sequence crossover study to investigate the […]
healthy male and female volunteers (age range 18-60 years; n: 12). As systemic basmisanil exposure was predicted to be higher than exposures achiev ed in previous clinical studies, regular EEG examinations were included and reviewed by a neurologist. Multiple oral doses […]
with the CYP3A inhibitor, itraconazole (200 m g OD).
Baseline EEG assessments were performed prior to the study (resting EEG eyes open/closed, intermittent photic stimulation, hyperventilation). On treatment days (1, 3, 5, 8) […]
hours and resting EEG eyes open/closed w ere performed. […]
administered with itraconazole.

[4] = 3 and 10 mg/kg p.o. + diazepam 6 mg/kg i.p.
[5] = 240 mg BID with itraconazole 200 mg OD versus alone

## Cc1onc(-c2ccc(F)cc2)c1COc1ccc(C(=O)N2CCS(=O)(=O)CC2)cn1 [basmisanil]
Benzodiazepine (central)
  % Inhibition: 76%
Dopamine D5
  % Inhibition: -11%
Muscarinic M2
  % Inhibition: 13%
Serotonin 5-HT1A
  % Inhibition: 0%
Serotonin 5-HT1B
  % Inhibition: 0%
Serotonin 5-HT6
  % Inhibition: 7%
Bradykinin B2
  % Inhibition: 14%
Melanocortin MC4
  % Inhibition: 9%
Neuropeptide Y2
  % Inhibition: 7%
Nociceptin (ORL1)
  % Inhibition: -4%
Na+ channel (site 2)
  % Inhibition: 0%
Male Lister Hooded rats; 10 mg/kg p.o. + diazepam 6 mg/kg i.p., 30 min before test
  probe trial, percent time spent in the previous platform quadrant: attenuated the diazepam-induced deficit
Male Lister Hooded rats; [4]
  latency and pathlength across six learning trials: did not significantly reduce the diazepam-induced increase in latency and pathlength
  swim speed: no effect on swim speed
Wistar rats; female rats, 30 mg/kg, 2 h prior to PTZ 70 mg/kg
  proconvulsant activity: did not exert proconvulsant activity
Wistar rats; female rats, 100 mg/kg, threshold dose of PTZ, p < 0.05
  rats exhibiting tonic convulsions: five out of eight
Wistar rats; female rats, 300 and 600 mg/kg, p < 0.05
  rats exhibiting tonic convulsions, compared with 100 mg/kg: identical effects
Wistar rats; male rats, single doses up to 100 mg/kg, 1 h prior to PTZ 55 mg/kg
  proconvulsant activity: did not exert proconvulsant activity
Male Sprague-Dawley rats
  prepulse inhibition induced by prepulse intensities 72, 76, 80, 84 dB: does not impair prepulse inhibition
Healthy subjects; PET and EEG studies
  safety and tolerability: safe and well tolerated
Healthy subjects; any cohort
  adverse events: no severe adverse events
[1]; 45 mg oral
  bioavailability: ~75%
  Tmax: 3.5 h
  AUC(0-t): 6040 ± 38.7 ng·h/mL
  Cmax: 767 ± 15.4 ng/mL
[1]; 160 mg oral
  bioavailability: ~75%
  Tmax: 4 h
  AUC(0-t): 20300 ng·h/mL
  Cmax: 1860 ± 14.3 ng/mL
[1]; 330 mg oral
  bioavailability: ~75%
  Tmax: 4 h
  AUC(0-t): 30500 ng·h/mL
  Cmax: 2120 ± 24 ng/mL
[1]; single dose 160 mg
  maximum plasma concentration: 1860 ng/mL
[1]; single dose 660 mg
  maximum plasma concentration: 3710 ng/mL
[1]; single dose 1250 mg
  maximum plasma concentration: 4890 ng/mL
[2]
  half-life: 0.5 h
[2]; read-out: Total CL
  clearance: 37 mL/min/kg
[2]; read-out: Vss
  Vd: 1.3 L/kg
[3]; 240 mg BID alone
  maximum plasma concentration: 3510 ng/mL
[3]; 240 mg BID co-administered with itraconazole 200 mg OD
  maximum plasma concentration: 14500 ng/mL
[3]; [5]
  increase in maximum plasma concentration: 312%
  increase in systemic exposure at steady state: 374%
[3]; DDI study, n = 12
  maximum plasma concentration: approximately 14,500 ng/mL
[3]; co-administered with itraconazole
  EEG findings: no epileptiform discharges
